Experimental data taken from patent US11034672B1, “Tyrosine kinase inhibitor compositions, methods of making and methods of use” (Black Diamond Therapeutics, Inc., priority 2018, dated 2021).

Tests used:
[1] = molecular target: T1, HER2 S310F (Homo sapiens, UniProt P04626, S310F); assay: BaF3 cell proliferation assay, HER2 S310F (Table B); type: cell-based; settings: potency code, 3 days, CellTiterGlo, read-out: HER2 S310F (Activity for Inhibiting HER2)
T1 construct: expressed in transfected cells; host or cells: BaF3 (murine pro-B)
T1 sequence (P04626 23-1255 S310F): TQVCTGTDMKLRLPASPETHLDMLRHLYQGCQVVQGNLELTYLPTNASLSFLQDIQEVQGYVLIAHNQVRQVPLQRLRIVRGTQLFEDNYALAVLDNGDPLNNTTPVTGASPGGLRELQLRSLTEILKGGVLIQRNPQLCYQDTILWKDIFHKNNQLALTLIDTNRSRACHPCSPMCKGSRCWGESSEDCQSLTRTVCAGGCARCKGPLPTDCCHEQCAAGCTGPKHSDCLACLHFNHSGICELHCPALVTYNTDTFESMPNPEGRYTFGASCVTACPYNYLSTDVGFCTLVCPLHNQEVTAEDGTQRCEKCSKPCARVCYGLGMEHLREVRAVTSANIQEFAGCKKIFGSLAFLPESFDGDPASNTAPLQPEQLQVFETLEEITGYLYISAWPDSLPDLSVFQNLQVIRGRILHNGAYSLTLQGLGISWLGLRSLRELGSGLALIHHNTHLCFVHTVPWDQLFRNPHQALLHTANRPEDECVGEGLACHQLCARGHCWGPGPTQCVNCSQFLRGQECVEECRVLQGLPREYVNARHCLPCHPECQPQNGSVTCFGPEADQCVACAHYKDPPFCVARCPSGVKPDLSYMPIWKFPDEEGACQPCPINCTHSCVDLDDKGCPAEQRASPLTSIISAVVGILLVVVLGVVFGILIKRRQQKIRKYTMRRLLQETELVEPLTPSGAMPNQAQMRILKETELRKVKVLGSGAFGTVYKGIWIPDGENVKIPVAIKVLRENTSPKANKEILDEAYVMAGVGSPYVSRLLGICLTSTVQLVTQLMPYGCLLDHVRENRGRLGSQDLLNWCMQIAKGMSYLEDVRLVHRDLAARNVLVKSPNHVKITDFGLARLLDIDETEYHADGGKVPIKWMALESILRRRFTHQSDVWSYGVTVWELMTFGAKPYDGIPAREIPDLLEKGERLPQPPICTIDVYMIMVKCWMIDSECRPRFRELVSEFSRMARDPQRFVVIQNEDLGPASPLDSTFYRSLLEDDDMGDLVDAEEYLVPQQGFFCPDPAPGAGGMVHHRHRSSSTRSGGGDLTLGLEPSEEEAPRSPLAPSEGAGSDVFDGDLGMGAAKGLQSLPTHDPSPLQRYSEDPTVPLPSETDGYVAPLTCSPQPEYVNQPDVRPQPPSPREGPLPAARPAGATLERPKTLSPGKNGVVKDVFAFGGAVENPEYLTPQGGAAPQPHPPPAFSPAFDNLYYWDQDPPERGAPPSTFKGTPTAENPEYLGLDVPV

[2] = molecular target: T2, EGFR NPH (Homo sapiens, UniProt P00533, DUP771-773); assay: Activity for inhibiting EGFR (Table A), EGFR NPH; type: cell-based; settings: read-out: EGFR NPH, potency code (IC50)
T2 construct: expressed in transfected cells; host or cells: BaF3 (murine pro-B), retroviral pMXs-IRES-Blasticidin
T2 sequence (P00533 with tags, fused parts or gaps DUP771-773): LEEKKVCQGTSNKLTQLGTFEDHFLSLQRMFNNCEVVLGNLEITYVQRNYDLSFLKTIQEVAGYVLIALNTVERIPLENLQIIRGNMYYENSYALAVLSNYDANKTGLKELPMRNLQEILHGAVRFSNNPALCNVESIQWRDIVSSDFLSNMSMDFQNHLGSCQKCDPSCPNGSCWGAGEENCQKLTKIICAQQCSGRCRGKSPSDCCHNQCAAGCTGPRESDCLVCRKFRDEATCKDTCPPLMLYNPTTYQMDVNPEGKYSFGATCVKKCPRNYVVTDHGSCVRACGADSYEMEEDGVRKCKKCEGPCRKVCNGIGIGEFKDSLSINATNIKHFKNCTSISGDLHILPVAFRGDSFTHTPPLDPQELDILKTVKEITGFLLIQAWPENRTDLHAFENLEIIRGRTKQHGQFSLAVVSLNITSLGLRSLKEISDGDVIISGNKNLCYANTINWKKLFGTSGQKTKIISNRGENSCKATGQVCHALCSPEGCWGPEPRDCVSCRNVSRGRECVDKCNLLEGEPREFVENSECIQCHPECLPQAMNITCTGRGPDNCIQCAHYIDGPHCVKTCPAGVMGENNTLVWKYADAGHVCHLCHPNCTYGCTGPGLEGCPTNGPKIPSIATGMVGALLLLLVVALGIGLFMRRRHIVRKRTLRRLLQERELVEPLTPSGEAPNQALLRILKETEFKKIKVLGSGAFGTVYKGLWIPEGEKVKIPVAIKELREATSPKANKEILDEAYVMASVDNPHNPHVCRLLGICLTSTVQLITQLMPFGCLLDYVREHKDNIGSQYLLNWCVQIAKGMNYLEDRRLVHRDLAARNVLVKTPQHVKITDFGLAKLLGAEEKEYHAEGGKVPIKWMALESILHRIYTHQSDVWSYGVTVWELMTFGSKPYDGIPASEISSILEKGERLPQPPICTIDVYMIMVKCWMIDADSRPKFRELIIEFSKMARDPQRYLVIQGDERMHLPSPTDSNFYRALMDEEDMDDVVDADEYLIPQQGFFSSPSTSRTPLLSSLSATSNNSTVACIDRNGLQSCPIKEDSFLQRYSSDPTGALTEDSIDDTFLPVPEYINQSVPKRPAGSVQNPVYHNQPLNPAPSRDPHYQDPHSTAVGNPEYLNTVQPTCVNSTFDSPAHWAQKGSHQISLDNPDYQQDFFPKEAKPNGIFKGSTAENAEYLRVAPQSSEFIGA

[3] = molecular target: T3, EGFR WT (Homo sapiens, UniProt P00533); assay: Activity for inhibiting EGFR (Table A), EGFR WT; type: cell-based; settings: read-out: EGFR WT, potency code (IC50)
[4] = molecular target: T4, HER2 YVMA (Homo sapiens, UniProt P04626, INS775YVMA); assay: Activity for inhibiting HER2 (Table B), HER2 YVMA; type: cell-based; settings: read-out: HER2 YVMA, potency code (IC50)
T4 construct: expressed in transfected cells; host or cells: BaF3 (murine pro-B)
Method: (§1) EC50 values were determined with the same application.

[5] = molecular target: T5, EGFR V3 (Homo sapiens, UniProt P00533, DELINS30-297G); assay: Activity for inhibiting EGFR (Table A), EGFR V3 (EGFR-Viii); type: cell-based; settings: read-out: EGFR V3, potency code (IC50)
T5 construct: expressed in transfected cells; host or cells: BaF3 (murine pro-B), retroviral pMXs-IRES-Blasticidin
T5 sequence (P00533 with tags, fused parts or gaps DELINS30-297G): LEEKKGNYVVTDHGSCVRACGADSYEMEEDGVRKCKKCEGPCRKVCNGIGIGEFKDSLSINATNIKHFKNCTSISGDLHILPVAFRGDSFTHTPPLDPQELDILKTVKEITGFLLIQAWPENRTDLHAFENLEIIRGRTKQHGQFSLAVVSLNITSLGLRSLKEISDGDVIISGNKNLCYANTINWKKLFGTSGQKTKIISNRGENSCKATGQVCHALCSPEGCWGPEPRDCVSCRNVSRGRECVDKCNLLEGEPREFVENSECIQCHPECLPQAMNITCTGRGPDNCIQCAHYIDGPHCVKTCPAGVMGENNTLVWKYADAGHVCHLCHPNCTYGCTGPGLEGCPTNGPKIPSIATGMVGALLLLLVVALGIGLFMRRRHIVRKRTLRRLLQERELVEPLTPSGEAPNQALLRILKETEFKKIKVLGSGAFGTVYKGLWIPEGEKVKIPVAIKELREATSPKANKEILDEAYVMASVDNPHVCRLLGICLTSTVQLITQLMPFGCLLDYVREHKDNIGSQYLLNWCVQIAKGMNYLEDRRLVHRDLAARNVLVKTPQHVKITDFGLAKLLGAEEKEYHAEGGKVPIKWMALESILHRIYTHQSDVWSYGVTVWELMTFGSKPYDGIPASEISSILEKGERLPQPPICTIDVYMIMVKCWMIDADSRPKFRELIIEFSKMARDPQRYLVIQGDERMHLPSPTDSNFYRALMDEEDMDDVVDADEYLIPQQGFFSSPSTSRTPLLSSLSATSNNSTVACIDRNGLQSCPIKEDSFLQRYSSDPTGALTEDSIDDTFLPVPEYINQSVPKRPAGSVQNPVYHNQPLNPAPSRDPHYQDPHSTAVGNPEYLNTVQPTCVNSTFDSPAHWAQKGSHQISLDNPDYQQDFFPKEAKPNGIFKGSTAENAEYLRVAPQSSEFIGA

[6] = molecular target: T3, EGFR WT; assay: BaF3 cell proliferation assay, EGFR WT (Table A); type: cell-based; settings: potency code, 3 days, CellTiterGlo, read-out: EGFR WT (Activity for Inhibiting EGFR)
Summary of the method: (§2)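 EC50 values come from proliferation of IL-3-independent BaF3 lines. These lines were made by two spin infections with retrovirus encoding each mutant, plus polybrene (8 μg/ml). They then underwent one week of 10 μg/ml blasticidin selection and were removed from IL-3.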

[7] = molecular target: T6, HER2 WT (Homo sapiens, UniProt P04626); assay: Activity for inhibiting HER2 (Table B), HER2 WT; type: cell-based
T6 sequence (P04626 23-1255): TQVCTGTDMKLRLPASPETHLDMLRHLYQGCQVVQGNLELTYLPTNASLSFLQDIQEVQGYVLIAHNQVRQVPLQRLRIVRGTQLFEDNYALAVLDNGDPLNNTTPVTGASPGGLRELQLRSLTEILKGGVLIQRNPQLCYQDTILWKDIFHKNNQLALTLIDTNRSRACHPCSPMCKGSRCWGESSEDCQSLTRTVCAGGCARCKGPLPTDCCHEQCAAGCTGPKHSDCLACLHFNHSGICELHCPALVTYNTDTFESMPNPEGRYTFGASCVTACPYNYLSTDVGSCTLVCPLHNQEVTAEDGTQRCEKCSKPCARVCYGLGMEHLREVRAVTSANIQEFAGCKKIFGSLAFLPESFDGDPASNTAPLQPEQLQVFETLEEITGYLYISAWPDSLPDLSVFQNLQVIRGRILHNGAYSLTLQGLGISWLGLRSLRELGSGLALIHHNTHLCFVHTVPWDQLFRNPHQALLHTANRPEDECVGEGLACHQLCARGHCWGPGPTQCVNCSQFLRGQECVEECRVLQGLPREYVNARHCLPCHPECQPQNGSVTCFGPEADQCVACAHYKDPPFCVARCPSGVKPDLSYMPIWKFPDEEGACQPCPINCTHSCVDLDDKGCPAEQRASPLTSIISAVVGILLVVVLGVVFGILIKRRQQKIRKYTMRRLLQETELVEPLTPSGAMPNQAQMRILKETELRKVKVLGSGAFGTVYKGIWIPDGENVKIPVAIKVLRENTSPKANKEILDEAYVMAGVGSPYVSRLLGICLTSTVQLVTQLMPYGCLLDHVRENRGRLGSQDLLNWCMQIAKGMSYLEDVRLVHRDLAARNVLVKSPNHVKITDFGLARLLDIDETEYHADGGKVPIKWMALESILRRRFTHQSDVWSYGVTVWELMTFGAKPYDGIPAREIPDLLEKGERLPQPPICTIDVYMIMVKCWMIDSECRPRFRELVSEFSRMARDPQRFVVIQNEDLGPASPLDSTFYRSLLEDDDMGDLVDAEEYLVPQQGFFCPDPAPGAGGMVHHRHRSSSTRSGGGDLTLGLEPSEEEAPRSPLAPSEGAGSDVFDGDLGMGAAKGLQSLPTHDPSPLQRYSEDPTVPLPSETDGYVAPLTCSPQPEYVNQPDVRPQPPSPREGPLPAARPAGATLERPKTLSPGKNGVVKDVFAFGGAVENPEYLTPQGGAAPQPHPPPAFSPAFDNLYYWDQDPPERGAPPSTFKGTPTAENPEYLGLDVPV

[8] = molecular target: T7, EGFR SVD (Homo sapiens, UniProt P00533, DUP768-770); assay: BaF3 cell proliferation assay, EGFR SVD (Table A); type: cell-based; settings: potency code, 3 days, CellTiterGlo, read-out: EGFR SVD (Activity for Inhibiting EGFR)
T7 construct: expressed in transfected cells; host or cells: BaF3 (murine pro-B), retroviral pMXs-IRES-Blasticidin
Summary of the method: as §2

[9] = molecular target: T7, EGFR SVD; assay: Activity for inhibiting EGFR (Table A), EGFR SVD; type: cell-based; settings: read-out: EGFR SVD, potency code (IC50)
[10] = molecular target: T4, HER2 YVMA; assay: BaF3 cell proliferation assay, HER2 YVMA (Table B); type: cell-based; settings: potency code, 3 days, CellTiterGlo, read-out: HER2 YVMA (Activity for Inhibiting HER2)
[11] = molecular target: T6, HER2 WT; assay: BaF3 cell proliferation assay, HER2 WT (Table B); type: cell-based; settings: potency code, 3 days, CellTiterGlo, read-out: HER2 WT (Activity for Inhibiting HER2)
[12] = molecular target: T1, HER2 S310F; assay: Activity for inhibiting HER2 (Table B), HER2 S310F; type: cell-based; settings: read-out: HER2 S310F, potency code (IC50)
Method: as §1

[13] = molecular target: T5, EGFR V3; assay: BaF3 cell proliferation assay, EGFR V3 (Table A); type: cell-based; settings: potency code, 3 days, CellTiterGlo, read-out: EGFR V3 (Activity for Inhibiting EGFR)
Summary of the method: as §2

[14] = tested on: Her2 S310F BaF3 tumors; assay: Tumor growth in athymic nude mice bearing Her2 S310F BaF3 tumors; type: in vivo; settings: for Tumor response: FIG. 28
Method: Tumor size was measured for each dosing schedule, and analyzed to assess regression. […] The effect was further confirmed in the dose-dependent experiment.
A mouse tumor model containing mutant Her2 was used to test the ability of Compound No. 26 to inhibit tumor growth and induce tumor regression in vivo. Athymic nude mice from Charles River Labs bearing Her2 S310F BaF3 tumors were treated with Compound No. 26 either at 15 mg/kg once per day (QD), 7.5 mg/kg twice per day (BID), and 15 mg/kg twice per day (BID). Tumor size was measured for each dosing condition and analyzed to assess regression. […] The effect was further confirmed in mice dosed at 15 mg/kg once per day (QD), 7.5 mg/kg twice per day (BID), and 15 mg/kg twice per day (BID). In addition to assessing tumor size in these groups, plasma was collected from dosed individuals at 2 and 5 hours following each treatment. Compound No. 26 levels were measured in the plasma samples to determine pharmacokinetic profiles that may influence tumor response.
Tumor size was measured and analyzed to assess the effect on tumor growth and regression.
A mouse tumor model containing mutant Her2 was used to test the ability of Compound No. 6 to inhibit tumor growth and induce tumor regression in vivo. Athymic nude mice from Charles River Labs bearing Her2 S310F BaF3 tumors were treated with Compound No. 6 at 30 mg/kg once per day (QD) for 10 days. Tumor size was measured and analyzed to assess the effect on tumor growth and regression.

[15] = molecular target: T2, EGFR NPH; assay: BaF3 cell proliferation assay, EGFR NPH (Table A); type: cell-based; settings: potency code, 3 days, CellTiterGlo, read-out: EGFR NPH (Activity for Inhibiting EGFR)
Summary of the method: as §2

[16] = Table B, read-out: HER2 WT, potency code (IC50)
[17] = text lists of compounds, read-out: IC50 value for inhibiting wild-type HER2
[18] = 50 mg/kg once per day for 10 days

IC50 [1] | IC50 [2] | IC50 [3] | IC50 [4] | IC50 [5] | IC50 [6] | IC50 [7, 16] | IC50 [7, 17] | IC50 [8] | IC50 [9] | IC50 [10] | IC50 [11] | IC50 [12] | IC50 [13] | IC50 [15] | Compound | Tumor volume [14, 18] | other results
10 to 20 nM | 30 to 50 nM | 300 to 500 nM | 50 to 100 nM | 20 to 30 nM | 300 to 500 nM | 5 to 10 nM | ≤ 10 nM | 20 to 30 nM | 20 to 30 nM | 50 to 100 nM | 5 to 10 nM | 10 to 20 nM | 20 to 30 nM | 30 to 50 nM | C=CC(=O)Nc1cc2c(Nc3ccc(OCc4ccccn4)c(Cl)c3)ncnc2cc1OCCN1CCOCC1 [compound 8] | decreased | Tumor regression, dose-dependent experiment ([14]; 15 mg/kg to 100 mg/kg once per day (QD) for 10 days, FIG. 26 right panel): regressed in a Compound No. 8 dose-dependent manner
< 5 nM | 30 to 50 nM | 30 to 50 nM | 5 to 10 nM | 10 to 20 nM | 30 to 50 nM | < 5 nM | ≤ 5 nM | 10 to 20 nM | 10 to 20 nM | 5 to 10 nM | < 5 nM | < 5 nM | 10 to 20 nM | 30 to 50 nM | CC#CC(=O)Nc1cc2c(Nc3ccc(OCc4ccccn4)c(Cl)c3)ncnc2cc1OCCN1CCOCC1 [compound 5] |  | 
5 to 10 nM | 10 to 20 nM | 500 to 1000 nM | 20 to 30 nM | 20 to 30 nM | 500 to 1000 nM | < 5 nM | ≤ 10 nM | 10 to 20 nM | 10 to 20 nM | 20 to 30 nM | < 5 nM | 5 to 10 nM | 20 to 30 nM | 10 to 20 nM | C=CC(=O)Nc1cc2c(Nc3ccc(OCc4ccccn4)c(Cl)c3)ncnc2cc1OCCCN1CCOCC1 [compound 21] | did not increase over the same timeframe and showed moderate reduction in volume | 
10 to 20 nM |  | 200 to 300 nM | 50 to 100 nM | 20 to 30 nM | 200 to 300 nM | 5 to 10 nM | ≤ 10 nM |  |  | 50 to 100 nM | 5 to 10 nM | 10 to 20 nM | 20 to 30 nM |  | C=CC(=O)Nc1cc2c(Nc3cc(Cl)c(OCc4cccc(F)c4)cc3F)ncnc2cc1OCCN1CCOCC1 [compound 6] |  | Tumor volume ([14]; 30 mg/kg once per day (QD) for 10 days, FIG. 30): decreased
5 to 10 nM | 30 to 50 nM | 300 to 500 nM | 30 to 50 nM | 30 to 50 nM | 300 to 500 nM | 5 to 10 nM | ≤ 10 nM | 30 to 50 nM | 30 to 50 nM | 30 to 50 nM | 5 to 10 nM | 5 to 10 nM | 30 to 50 nM | 30 to 50 nM | C=CC(=O)Nc1cc2c(Nc3ccc(OCc4ccccn4)c(Cl)c3)ncnc2cc1C#C[C@@H]1[C@H]2CN(C)C[C@@H]12 [compound 26] |  | Tumor response ([14]; 7.5 mg/kg twice per day (BID)): definite tumor growth inhibition properties; Tumor response ([14]; 15 mg/kg BID): definite tumor regressive properties; Tumor volume over the time course ([14]; 15 mg/kg QD, 7.5 mg/kg BID, 15 mg/kg BID, FIG. 27): did not increase; Tumor response ([14]; 15 mg/kg once per day (QD)): definite tumor growth inhibition properties
